Patent US10351856B2, “Ribonucleic acid aptamer having inhibitory effect on non-small cell lung cancer and pharmaceutical composition comprising same” (BIOPHARMAGEN CORP., FANGZHOU SUZHOU, priority 2016, dated 2019)
“And” between values parts separate entries of the source, which are not always exact repeats. Equal values may be shown once. “Also recorded” adds a separate entry of the source.

How the values were obtained:
[1] = test system: human non-small cell lung cancer H460 transplanted tumor; experiment: RA16-EPI adduct or epirubicin on tumor growth in H460 subcutaneous tumor-bearing mice; type: in vivo; details: 3 times, day 16
Procedure: In order to clarify the effect of the nucleic acid aptamer RA16-EPI adduct on the growth of human non-small cell lung cancer solid tumors, the inventors used model mice that were injected with human non-small cell lung cancer H460 cells and constructed with a subcutaneous tumor as experimental subjects (initial mean tumor volume was 200-300 mm^3). They were randomly divided into 6 groups, each of which had 5 tumor-bearing mice. One group served as a negative control group (0.1 ml of normal saline was injected intravenously on the 0th, 7th, and 14th days respectively); and the other 5 groups served as treatment groups (different doses of drugs were given every week, and the administration manners and doses are shown in Table 2.). Every 2 days, the tumor diameter of the tumor-bearing mice was measured, the tumor volume was calculated, and the tumor growth curves were drawn (FIG. 5). On the 16th day, the tumor was extracted, the tumor was weighed, and the tumor growth inhibition rate was calculated.

[2] = test system: human cervical cancer Hela cells; experiment: CCK-8 relative viability / proliferation of Hela cells; type: cell-based; details: CCK-8, 48 h, 300 nM or 0-400 nM
Procedure: (§1) In order to clarify the effect of the nucleic acid aptamer RA16 on the proliferation of human non-small cell lung cancer cell lines, the inventors used the CCK-8 method (CCK-8 kit purchased from Dojindo Molecular Technologies, Inc.) to detect the relative viability of human non-small cell lung cancer cell line H460 (ATCC) and other tumor cells (human cervical cancer Hela cells) (the initial cell concentration was 2×10^4 cells/ml) after 48 h of treatment by 300 nM RA16. The same treatment was performed as the control with the same concentration of SCAP obtained by randomly shuffling the RA16.
Further, CCK-8 assay was used to detect the growth conditions of human non-small cell lung cancer H460 cells and human cervical cancer Hela cells (the concentration of test cells was about 2×10^4/ml) after 48 hours of treatment with different concentrations of nucleic acid aptamer RA16 and SCAP (concentration 0, 5, 10, 50, 100, 150, 200, 300, 400 nM respectively) with randomly srambled RA16, and after three independent experiments, the results are shown in FIG. 2A-B. […]

[3] = test system: human non-small cell lung cancer cell line H460; experiment: CCK-8 relative viability / proliferation of H460 cells; type: cell-based; details: for effect on proliferation of H460 cells: CCK-8, 48 h, 300 nM or 0-400 nM
Procedure: as §1
Further, CCK-8 assay was used to detect the growth conditions of human non-small cell lung cancer H460 cells and human cervical cancer Hela cells (the concentration of test cells was about 2×10^4/ml) after 48 hours of treatment with different concentrations of nucleic acid aptamer RA16 and SCAP (concentration 0, 5, 10, 50, 100, 150, 200, 300, 400 nM respectively) with randomly srambled RA16, and after three independent experiments, the results are shown in FIG. 2A-B.
In order to clarify the effect of the nucleic acid aptamer RA16-EPI adduct on the proliferation of human non-small cell lung cancer cell lines, the inventors used the CCK-8 method to detect the relative viability of human non-small cell lung cancer cell line H460 and other tumor cell lines (human cervical cancer Hela cells) (initial cell concentration was 2×10^4 cells/ml) after 48 h of treatment by 375 nM RA16-EPI.

[4] = test system: human non-small cell lung cancer H460 transplanted tumor; experiment: RA16 on tumor growth in H460 subcutaneous tumor-bearing mice; type: in vivo; details: 2 nmol i.v. on days 0, 3, 5, 7, 9; tumor weighed on day 16
Procedure: In order to clarify the effect of the nucleic acid aptamer RA16 on the growth of human non-small cell lung cancer solid tumors, the inventors used model mice that were injected with human non-small cell lung cancer H460 cells and constructed with a subcutaneous tumor as experimental subjects (initial mean tumor volume was 100 mm^3 or so). They were randomly divided into two groups, each of which had 6 tumor-bearing mice. One group served as a negative control group (0.1 ml of normal saline was injected intravenously on the 0th, 3rd, 5th, 7th, and 9th days respectively); and the other was an RA16 treatment group (2 nmol of RA16 was injected intravenously the 0th, 3rd, 5th, 7th, and 9th days respectively). Every other day, the tumor diameter of the tumor-bearing mice was measured, the tumor volume was calculated, and the tumor growth curves were drawn (FIG. 4). On the 16th day, the tumor was extracted, the tumor was weighed, and the tumor growth inhibition rate was calculated.

[5] = high dose, EPI 1.5 mg/kg/week i.v.
[6] = low dose, EPI 0.5 mg/kg/week i.v.

Molecule	Inhibition Rate (%) of tumor growth [1, 5] [%]	Tumor Weight [1, 5] [g]	Inhibition Rate (%) of tumor growth ([1]; high dose, EPI 1.5 mg/kg/week i.v., listed as EPI) [%]	Inhibition Rate (%) of tumor growth [1, 6] [%]	Tumor Weight [1, 6] [g]	effect on human cervical cancer Hela cells [2]	effect on proliferation of H460 cells [3]	IC50 ([3]; CCK-8, 48 hours, 0-400 nM, read-out: IC50 of inhibition of proliferation of H460 cells) [nM]	Inhibition Rate (%) of tumor growth [4]
COc1cccc2c1C(=O)c1c(O)c3c(c(O)c1C2=O)C[C@@](O)(C(=O)CO)C[C@@H]3O[C@H]1C[C@H](N)[C@@H](O)[C@H](C)O1 [Epirubicin]	47.13	1.97 ± 0.38	47.13	28.76	2.65 ± 0.21	–	–	–	–
RA16: ribonucleic acid aptamer of SEQ ID NO: 1, prepared by in vitro transcription, binds human non-small cell lung cancer (nucleic acid, listed as RNA, chemistry not fully specified) GGGAGAGAACAAUGACCUGCGGUGCCAAGCCGUCGGGUUAUGUUGAUCUCCACAAGGACGAGUGCAUUGCAUCACGUCAGUAG	–	–	–	–	–	no inhibitory effect; also recorded: no obvious effects; also recorded: no significant effect	obviously inhibit the proliferation	117	54.3% and 54.26%
SCAP: nucleic acid obtained by randomly shuffling the sequence of RA16, SEQ ID NO: 2, control (nucleic acid, listed as RNA, chemistry not given here) GGGAGAGAACAAUGACCUGUUGCAAGCGCGUCGGUAAUUCGCGCACAUGGCAGGCUUCUGAGUGCAUUGCAUCACGUCAGUAG	–	–	–	–	–	–	little effect	–	–
